In data set [1] the test system is obese, insulin-resistant mice. The data set is described as follows: Wild-type mice fed a calorie dense diet high in sugar and fat (obese, insulin-resistant).
For another data set, the system named is MC3T3-E1 cells. The data set is described as follows: Mineralization of osteoblastic cells (Alizarin red S staining, osteoblast gene expression). It is filed as cell-based, mouse. From the text: Moreover, the expression of genes involved in the differentiation of these cells was impaired (alkaline phosphatase, RANKL, type I collagen).
In data set [2] the test system is PPARG (murine PPARg2 or full-length human PPARG, 3xPPRE-luciferase reporter). The data set is described as follows: Cell-based PPRE-luciferase transactivation assay in COS-1 cells.
The next data set relates to ob/ob mouse. The data set is described as follows: Leptin-deficient ob/ob mouse model. As to conditions: ob/ob mice. The procedure: A more severe model of obesity is the leptin-deficient ob/ob mouse. These animals are very obese and insulin-resistant, with substantial compensatory hyperinsulinemia. […] Functional analyses were performed at days 5 and 11 after the start of treatments.
Longer treatments with these drugs allowed an assessment of certain side effects.

Another data set relates to differentiated fat cells. The data set is described as follows: cdk5-mediated phosphorylation of PPARG in differentiated fat cells. It counts as cell-based. From the text:
(§1) In order to develop a suitable ligand, we optimized compounds for (i) high binding affinity for PPARG, (ii) blocking the cdk5-mediated PPARG phosphorylation and (iii) lacking classical agonism. Classical agonism is defined here, as is standard in the nuclear receptor field, as an increased level of transcription through a tandem PPAR response element luciferase reporter (PPRE::Luc).

Another data set deals with pre-adipose cell lines. The data set is described as follows: Fat cell differentiation (Oil Red O staining, adipogenic gene expression). It is filed as cell-based.
Data set [3] deals with Rb protein (cdk5 substrate) (Homo sapiens (Human), UniProt Q00535). The data set is described as follows: cdk5 phosphorylation of Rb protein in vitro (Western blot). It counts as biochemical.
From the text: as §1
On the technique in general: A western blot detects proteins with antibodies after separation by electrophoresis.

Data set [4] in a line: Pharmacokinetic properties. As to conditions: in vivo.
Data set [5] has as its system obese, insulin-resistant mice. The data set is described as follows: Hyperinsulinemic-euglycemic clamp in obese mice. It is filed as in vivo, mouse. From the text:
The most accurate method for measuring changes in insulin sensitivity is the hyperinsulinemic-euglycemic clamp (DeFronzo et al., 1979). In this method, animals are exposed to an elevated concentration of insulin while the amount of glucose infused is adjusted in real time to maintain fixed, or clamped glycemia.

For another data set, the system named is RAW264.7 cells. The data set is described as follows: Inflammatory cytokine production in LPS stimulated RAW264.7 cells. It counts as cell-based.
A further data set deals with GST-PPARG-LBD (Homo sapiens (Human), UniProt P37231). The data set is described as follows: Lanthascreen PPARG competitive binding assay (Invitrogen, TR-FRET). As to conditions: Lanthascreen competitive binding; NA = not active; inc = incomplete curve; read-out: IC50 (nM) Lantha. An outline of the steps: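 Values are fold change in 520 nm/490 nm FRET ratio relative to a 2% DMSO no-ligand control, excitation 340 nm. Compound dilutions starting at 10 μM competed against 5 nM Fluormone Pan-PPAR Green for GST-PPARG-LBD bound by 5 nM Tb anti-GST antibody. Incubation 2 h in the dark in assay buffer C, triplicate wells.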
Chain of GST-PPARG-LBD (P37231 238-503): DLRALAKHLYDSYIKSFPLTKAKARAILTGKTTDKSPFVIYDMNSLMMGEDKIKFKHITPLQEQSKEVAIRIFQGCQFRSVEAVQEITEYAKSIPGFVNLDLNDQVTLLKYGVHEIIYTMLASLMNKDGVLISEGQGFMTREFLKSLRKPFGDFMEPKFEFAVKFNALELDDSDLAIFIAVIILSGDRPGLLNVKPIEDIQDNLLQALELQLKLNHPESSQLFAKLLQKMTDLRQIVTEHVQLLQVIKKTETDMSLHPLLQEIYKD
(TR-FRET usually uses a lanthanide donor and a delayed reading to cut background.)

Data set [6] concerns the target PPARG (murine PPARg2 or full-length human PPARG, 3xPPRE-luciferase reporter) (Homo sapiens, UniProt P37231). The data set is described as follows: Cell-based PPRE-luciferase transactivation assay in COS-1 cells. As to conditions: PPRE-luciferase, COS-1 cells; NA = not active; read-out: EC50 (nM) PPRE.
Where [7] appears, read: injected twice daily for 5 days.

Experimental findings from patent publication US8957093B2, “N-biphenylmethylindole modulators of PPARG” (The Scripps Research Institute, priority 2011, dated 2015) are described below.

Chain of PPARG (murine PPARg2 or full-length human PPARG, 3xPPRE-luciferase reporter) (Homo sapiens, UniProt P37231) (P37231 whole entry, looked up): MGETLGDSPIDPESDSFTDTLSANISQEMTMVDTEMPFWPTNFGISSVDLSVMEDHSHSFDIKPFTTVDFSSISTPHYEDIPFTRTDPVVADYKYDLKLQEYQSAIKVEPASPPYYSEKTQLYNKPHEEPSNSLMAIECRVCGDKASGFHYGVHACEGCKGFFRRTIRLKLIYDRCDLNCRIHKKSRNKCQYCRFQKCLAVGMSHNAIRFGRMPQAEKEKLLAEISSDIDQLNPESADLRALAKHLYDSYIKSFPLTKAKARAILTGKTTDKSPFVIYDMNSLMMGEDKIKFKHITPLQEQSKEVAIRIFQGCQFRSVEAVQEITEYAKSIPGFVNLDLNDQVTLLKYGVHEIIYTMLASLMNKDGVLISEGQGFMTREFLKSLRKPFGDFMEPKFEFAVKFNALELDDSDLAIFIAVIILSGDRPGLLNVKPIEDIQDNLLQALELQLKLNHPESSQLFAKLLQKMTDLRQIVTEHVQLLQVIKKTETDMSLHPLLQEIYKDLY

In the case of `Cc1c(C)n(Cc2ccc(-c3ccccc3C(=O)O)cc2)c2ccc(C(=O)N[C@@H](C)c3ccc([N+](=O)[O-])cc3)cc12` [SR1664], in data set [1] (setting [7]), the “body weight compared to vehicle treated mice” value was “without significant differences”, the “cdk5-mediated phosphorylation of PPARG at serine 273 in adipose tissue” value is reported as “dose-dependent decrease”, the fasting insulin levels result is given as “significant reduction” and the glucose levels entry is given as “trend toward lowered (and normalized) glucose levels”. Further, in [1] (setting [7]), the “insulin resistance as computed by HOMA-IR” value is “clear and dose-dependent improvement”. Further, the “expression of adiponectin and adipsin” value in data set [1] (mouse, in vivo) is “induced”. Moreover, in the data set on MC3T3-E1 cells, the “expression of osteoblast differentiation genes (alkaline phosphatase, RANKL, type I collagen)” value is “did not affect”. In the data set on MC3T3-E1 cells (Alizarin red S staining), the “mineralization (calcification)” value is on record as “did not affect”. Besides, the “transcriptional agonism on tandem PPRE::Luc reporter” value in data set [2] (compared to rosiglitazone or MRL24) is “essentially no transcriptional agonism at any concentration”. In the data set on ob/ob mouse, the glucose tolerance test result is “markedly improved”. In the data set on ob/ob mouse (after five days of treatment), the insulin levels entry is “substantially reduced”. Also, the fasting glucose levels in the data set on ob/ob mouse (after five days of treatment, vehicle 110±13) was determined as 90 ± 12 mg/dL. In addition, in the data set on ob/ob mouse (longer treatment), the “body fat / adiposity by MRI” value was “no decrease in the hematocrit or change in body adiposity” and the “hematocrit (fluid retention)” value was “no decrease”. Moreover, in the data set on ob/ob mouse (longer treatment (11 days)), the body weight entry was “did not cause the weight gain”. The “blocking cdk5-mediated phosphorylation of PPARG in differentiated fat cells” value with differentiated fat cells is listed as “effective at blocking”. Moreover, the “fat cell differentiation / lipid accumulation” value with pre-adipose cell lines (Oil Red O staining) is listed as “did not stimulate increased lipid accumulation or changes in morphology”. Further, the “expression of aP2, C/EBPα and Glut4” value in the data set on pre-adipose cell lines (genes linked to adipogenesis) was “little or no change”. In data set [3], the “effect on cdk5 phosphorylation of the Rb protein” value was “no effect”. For the same molecule, the pharmacokinetic properties entry in data set [4] was “adequate”. For the same molecule, the “plasma FFA” value in data set [5] (basal and clamped conditions) is listed as “reduction”. In data set [5] (clamp), the “glucose uptake in the adipose tissue” value is reported as “significantly enhanced”, the “suppression of endogenous hepatic glucose production (EGP)” value is “increased” and the “whole body glucose utilization” value is on record as “not increased”. Also, the “glucose infusion rate (GIR) needed to maintain euglycemia” value in data set [5] (versus vehicle alone) is listed as “significantly greater”. For the same molecule, the “production of inflammatory cytokines” value in the data set on RAW264.7 cells is given as “inhibition of production of inflammatory cytokines”.

For `Cc1c(C)n(Cc2ccc(-c3ccccc3C(=O)O)cc2)c2ccc(C(=O)N[C@H]3COc4ccccc4C3)cc12` [Example 249, (R)-4′-((5-(chroman-3-ylcarbamoyl)-2,3-dimethyl-1H-indol-1-yl)methyl)-[1,1′-biphenyl]-2-carboxylic acid], the half-inhibitory concentration (IC50) at GST-PPARG-LBD came to 22 nM. In addition, the 50% effective concentration (EC50) in [6] was 80 nM. Also, the “PPRE transactivation (% in parentheses)” value in data set [2] (rosiglitazone = 100%) is “(1%)”.

One may read the IC50 as the midpoint of a concentration-inhibition curve. In general, EC50 refers to the concentration that produces a half-maximal response.
